The target of test [1] is HIS-AXL 473-End (Homo sapiens (Human), UniProt P30530). As to the kind of experiment: AXL kinase homogeneous time resolved fluorescence (HTRF) binding assay. The conditions noted are these: 1 nM kinase, fluorescein-labeled kinase tracer at Kd, 60 minutes at room temperature. As for the experimental part: (§1) MERTK, AXL, TYRO3 Kinase Homogeneous Time Resolved Fluorescence (HTRF) Assay
(§2) Assays were performed in black, flat-bottom, 1536-well plates. The reactions were incubated at room temperature for 60 minutes, following which the HTRF signals, ratio of fluorescence intensities at emission wavelengths for fluorescein acceptor (520 nm) and terbium donor (495 nm), the 520/495 ratio, were measured on the Envision Plate reader. Inhibition data were calculated from the 520/495 ratio generated by the no protein control reactions for 100% inhibition and vehicle-only reactions for 0% inhibition, and dose response curves generated to determine the concentration required for inhibiting 50% of the HTRF signal (IC50). Compounds were dissolved at 10 mM in dimethylsulfoxide (DMSO) and evaluated at eleven concentrations.

The target in test [2] is GST-MERTK 578-872 (Homo sapiens (Human), UniProt Q12866). As to the kind of experiment: MERTK kinase homogeneous time resolved fluorescence (HTRF) binding assay. To be noted: 1 nM kinase, fluorescein-labeled kinase tracer at Kd, 60 minutes at room temperature; read-out: Mer HTRF IC50. How it is done:
as §1, §2

The values below come from patent US20230339891A1, “URACIL DERIVATIVES AS MER-AXL INHIBITORS” (BRISTOL-MYERS SQUIBB COMPANY, priority 2018, published 2023).

Chain of HIS-AXL 473-End (P30530 473-894): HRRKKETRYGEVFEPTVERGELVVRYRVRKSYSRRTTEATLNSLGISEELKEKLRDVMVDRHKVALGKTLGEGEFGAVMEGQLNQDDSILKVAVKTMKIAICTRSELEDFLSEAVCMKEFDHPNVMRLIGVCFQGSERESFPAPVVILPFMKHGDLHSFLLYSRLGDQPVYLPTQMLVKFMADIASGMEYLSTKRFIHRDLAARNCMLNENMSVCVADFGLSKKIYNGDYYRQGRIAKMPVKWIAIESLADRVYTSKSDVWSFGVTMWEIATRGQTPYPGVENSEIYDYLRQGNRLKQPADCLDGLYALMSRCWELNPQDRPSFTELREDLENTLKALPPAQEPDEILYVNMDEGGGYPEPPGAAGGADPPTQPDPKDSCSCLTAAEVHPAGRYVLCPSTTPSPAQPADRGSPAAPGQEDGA
Chain of GST-MERTK 578-872 (Q12866 578-872): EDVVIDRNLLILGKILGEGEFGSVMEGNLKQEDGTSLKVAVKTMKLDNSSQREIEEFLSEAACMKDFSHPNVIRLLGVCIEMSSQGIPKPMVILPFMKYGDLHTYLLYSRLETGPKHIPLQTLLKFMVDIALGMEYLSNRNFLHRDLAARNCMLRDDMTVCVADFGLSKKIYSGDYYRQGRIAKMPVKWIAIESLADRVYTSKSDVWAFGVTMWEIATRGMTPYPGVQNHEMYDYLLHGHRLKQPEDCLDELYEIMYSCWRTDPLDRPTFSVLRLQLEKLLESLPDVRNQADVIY

Take `COC(=O)N1CCN(c2nc(Nc3cc(Oc4ccc(NC(=O)c5cn(C(C)C)c(=O)n(-c6ccc(F)cc6)c5=O)cc4F)ccn3)ccc2S(=O)(=O)N(C)C)CC1` [Example 100]: the values for the IC50 in test [1] and in test [2] were 0.0031 µM and 0.0021 µM, respectively.
Take `CC(C)n1cc(C(=O)Nc2ccc(Oc3ccnc(Nc4ccc(S(=O)(=O)N5CCC5)cn4)c3)c(F)c2)c(=O)n(-c2ccc(F)cc2)c1=O` [Example 81]: the IC50 came to 0.0044 µM in test [1] and 0.017 µM in test [2].
As for `CC(C)n1cc(C(=O)Nc2ccc(Oc3ccnc(Nc4ccc(S(=O)(=O)N(C)C)cn4)c3)c(F)c2)c(=O)n(-c2ccc(C(F)(F)F)cc2)c1=O` [Example 65], the IC50 in test [1] is 0.1 µM; in test [2], 0.127 µM.
For `CN(C)S(=O)(=O)c1ccc(Nc2cc(Oc3ccc(NC(=O)c4cn([C@@H]5CCOC5)c(=O)n(-c5ccc(F)cc5)c4=O)cc3F)ccn2)nc1` [Example 46], the IC50 in test [1] came out at 0.0054 µM; in test [2] it was 0.012 µM.
`COC[C@H](C)n1cc(C(=O)Nc2ccc(Oc3ccnc(Nc4ccc(S(=O)(=O)N(C)C)cn4)c3)c(F)c2)c(=O)n(-c2ccc(F)cc2)c1=O` [Example 45]: the IC50 was determined as 0.021 µM in test [1] and 0.04 µM in test [2].
As for `O=C(Nc1ccc(Oc2ccnc(Nc3ccc(Cl)cn3)c2)c(F)c1)c1cn(C2CC2)c(=O)n(-c2ccc(F)cc2)c1=O` [Example 36, N-[4-({2-[(5-chloropyridin-2-yl)amino]pyridin-4-yl}oxy)-3-fluorophenyl]-1-cyclopropyl-3-(4-fluorophenyl)-2,4-dioxo-1,2,3,4-tetrahydropyrimidine-5-carboxamide], the IC50 in test [1] is 0.011 µM; in test [2], 0.038 µM.
For `CC(C)n1cc(C(=O)Nc2ccc(Oc3ccnc(Nc4ccc(S(=O)(=O)N5CCOCC5)cn4)c3)c(F)c2)c(=O)n(-c2ccc(F)cc2)c1=O` [Example 84], in that order: 2.33 µM and 0.031 µM.
As for `CC(C)n1cc(C(=O)Nc2ccc(Oc3ccnc(Nc4ccc(S(=O)(=O)N5CCCCC5)cn4)c3)c(F)c2)c(=O)n(-c2ccc(F)cc2)c1=O` [Example 76, N-{3-Fluoro-4-[(2-{[5-(piperidine-1-sulfonyl)pyridin-2-yl]amino}pyridin-4-yl)oxy]phenyl}-3-(4-fluorophenyl)-2,4-dioxo-1-(propan-2-yl)-1,2,3,4-tetrahydropyrimidine-5-carboxamide], the figures for the IC50 in test [1] and in test [2] were 0.018 µM and 0.038 µM, respectively.
Take `CC(C)n1cc(C(=O)Nc2ccc(Oc3ccnc(Nc4ccc(S(=O)(=O)N(C)C)c(N(C)C)n4)c3)c(F)c2)c(=O)n(-c2ccc(F)cc2)c1=O` [Example 98, N-{4-[(2-{[6-(dimethylamino)-N,N-(dimethylsulfamoyl)pyridin-2-yl]amino}pyridin-4-yl)oxy]-3-fluorophenyl}-3-(4-fluorophenyl)-2,4-dioxo-1-(propan-2-yl)-1,2,3,4-tetrahydropyrimidine-5-carboxamide]: the IC50 in test [1] came out at 0.036 µM; in test [2] it was 0.022 µM.
As to `CC(C)n1cc(C(=O)Nc2ccc(Oc3ccnc(Nc4ccnc(N5CCC(S(C)(=O)=O)CC5)n4)c3)c(F)c2)c(=O)n(-c2ccc(F)cc2)c1=O` [Example 114], the figures for the IC50 in test [1] and in test [2] were 0.0006 µM and 0.0014 µM, respectively.
With `O=C(Nc1ccc(Oc2ccnc(Nc3ccnc(N4CCCC4)n3)c2)c(F)c1)c1cn(C2CC2)c(=O)n(-c2ccc(F)cc2)c1=O` [Example 105], the IC50 in test [1] is 0.0023 µM; in test [2] it was 0.0014 µM.
With `Cc1ccc(Nc2cc(Oc3ccc(NC(=O)c4cn(C(C)C)c(=O)n(-c5ccc(F)cc5)c4=O)cc3F)ccn2)nc1Cl` [Example 7], the IC50 in test [1] was 0.021 µM; in test [2], 0.082 µM.
Take `CS(=O)(=O)C1CCN(c2nccc(Nc3cc(Oc4ccc(NC(=O)c5cn(C6CC6)c(=O)n(-c6ccc(F)cc6)c5=O)cc4F)ccn3)n2)CC1` [Example 112, 1-cyclopropyl-N-{3-fluoro-4-[(2-{[2-(4-methanesulfonylpipedidin-1-yl)pyrimidin-4-yl]amino}pyridin-4-yl)oxy]phenyl}-3-(4-fluorophenyl)-2,4-dioxo-1,2,3,4-tetrahydropyrimidine-5-carboxamide]: the results for the IC50 in test [1] and in test [2] were 0.0008 µM and 0.0041 µM, respectively.
Consider `CC(C)n1cc(C(=O)Nc2ccc(Oc3ccnc(Nc4ccc(S(=O)(=O)N(C)C)cn4)c3)cc2)c(=O)n(-c2ccccc2)c1=O` [Example 75, N-{4-[(2-{[5-(dimethylsulfamoyl)pyridin-2-yl]amino}pyridin-4-yl)oxy]phenyl}-2,4-dioxo-3-phenyl-1-(propan-2-yl)-1,2,3,4-tetrahydropyrimidine-5-carboxamide], for which the results for the IC50 in test [1] and in test [2] were 0.0035 µM and 0.042 µM, respectively.
On to `CC(C)n1cc(C(=O)Nc2ccc(Oc3ccnc(Nc4ccc(S(=O)(=O)NC5CC5)cn4)c3)c(F)c2)c(=O)n(-c2ccc(F)cc2)c1=O` [Example 79], for which the IC50 in test [1] turned out to be 0.07 µM; in test [2], 0.013 µM.
Take `CC(C)n1cc(C(=O)Nc2ccc(Oc3ccnc(Nc4ncc(C(F)(F)F)cc4F)c3)c(F)c2)c(=O)n(-c2ccc(F)cc2)c1=O` [Example 12]: the IC50 came out at 0.055 µM in test [1] and 0.228 µM in test [2].
In the case of `CC(C)n1cc(C(=O)Nc2ccc(Oc3ccnc(Nc4ccnc(N5CCN(S(C)(=O)=O)CC5)n4)c3)c(F)c2)c(=O)n(-c2ccc(F)cc2)c1=O` [Example 102, N-{3-fluoro-4-[(2-{[2-(4-methanesulfonylpiperazin-1-yl)pyrimidin-4-yl]amino}pyridin-4-yl)oxy]phenyl}-3-(4-fluorophenyl)-2,4-dioxo-1-(propan-2-yl)-1,2,3,4-tetrahydropyrimidine-5-carboxamide], the values for the IC50 in test [1] and in test [2] were 0.0009 µM and 0.0005 µM, respectively.
Take `CC(C)n1cc(C(=O)Nc2ccc(Oc3ccnc(Nc4ccnc(N5CCCC5)n4)c3)c(F)c2)c(=O)n(C(C)C)c1=O` [Example 108]: the IC50 in test [1] amounted to 0.0038 µM; in test [2] it was 0.0091 µM.
Regarding `Cc1cccc(-n2c(=O)c(C(=O)Nc3ccc(Oc4ccnc(Nc5ccc(S(=O)(=O)N(C)C)cn5)c4)c(F)c3)cn(C(C)C)c2=O)c1` [Example 70], the IC50 in test [1] and in test [2] was 0.014 µM in each case.
As to `CNS(=O)(=O)c1ccc(Nc2cc(Oc3ccc(NC(=O)c4cn(C(C)C)c(=O)n(-c5ccc(F)cc5)c4=O)cc3F)ccn2)nc1` [Example 77], the IC50 in test [1] amounted to 0.005 µM; in test [2] it was 0.0083 µM.
With `Cc1ccc(Nc2cc(Oc3ccc(NC(=O)c4cn(C(C)C)c(=O)n(-c5ccc(F)cc5)c4=O)cc3F)ccn2)nc1` [Example 4], the IC50 in test [1] stood at 0.0044 µM; in test [2], 0.032 µM.
As to `CC(C)n1cc(C(=O)Nc2ccc(Oc3ccnc(Nc4ccc(S(C)(=O)=O)cn4)c3)c(F)c2)c(=O)n(-c2ccc(F)cn2)c1=O` [Example 37, N-[3-Fluoro-4-({2-[(5-methanesulfonylpyridin-2-yl)amino]pyridin-4-yl}oxy)phenyl]-3-(5-fluoropyridin-2-yl)-2,4-dioxo-1-(propan-2-yl)-1,2,3,4-tetrahydropyrimidine-5-carboxamide], the IC50 in test [1] was determined as 0.0026 µM; in test [2], 0.014 µM.
As to `CC(C)n1cc(C(=O)Nc2ccc(Oc3ccnc(Nc4ccc(C(=O)NS(=O)(=O)C(C)C)cn4)c3)c(F)c2)c(=O)n(-c2ccc(F)cc2)c1=O` [Example 96], the results for the half-maximal inhibitory concentration (IC50) in test [1] and in test [2] were 0.0007 µM and 0.0029 µM, respectively.
On to `CC(C)n1cc(C(=O)Nc2ccc(Oc3ccnc(Nc4ccc(N5CCOCC5)cn4)c3)c(F)c2)c(=O)n(-c2ccc(F)cc2)c1=O` [Example 21], for which the IC50 in test [1] stood at 0.039 µM; in test [2], 0.164 µM.
